According to patent publication US20200253978A1, “HETEROCYCLICS AS INHIBITORS OF FIBROBLAST GROWTH FACTOR RECEPTOR” (ADVENT PHARMA CO. LTD., priority 2017, published 2020):

How the values were obtained:
[1] = biological target: T1, BaF3 cells expressing Tel-FGFR-4 and luciferase (Homo sapiens, UniProt P22455); assay: BaF3 cellular growth inhibition assay, Tel-FGFR-4 and luciferase (Bright-Glo); type: cell-based; details: BaF3 Tel-FGFR-4 cells, 2 days incubation, 50% growth inhibition vs DMSO
T1 construct: Luciferase is co-expressed as a viability reporter and is not part of the key; P41212 (Transcription factor ETV6)
Description: (§1) Compounds' inhibitory activities against FGFR-4 or FGFR-1 were measured in BaF3 cells expressing Tel-FGFR-4 and luciferase or Tel-FGFR-1 and luciferase, whose growth was dependent on FGFR-4 or FGFR-1 kinase but independent of IL-3. The cells were plated in 384-well plates in RPMI1640 with 10% FBS. Compounds were added as 11-point dilutions. Cell viability was determined by Bright-Glo luciferase assay (Promega) after cells were incubated with compounds for 2 days. The IC50 value was determined as the concentration for 50% growth inhibition compared to DMSO treated cells (A: IC50<0.1 μM; B: IC50 between 0.1 μM and 1 μM; C: IC50 between 1 μM and 10 μM).

[2] = biological target: T2, BaF3 cells expressing Tel-FGFR-1 and luciferase (Homo sapiens, UniProt P11362); assay: BaF3 cellular growth inhibition assay, Tel-FGFR-1 and luciferase (Bright-Glo); type: cell-based; details: BaF3 Tel-FGFR-1 cells, 2 days incubation, 50% growth inhibition vs DMSO
T2 construct: Luciferase is co-expressed as a viability reporter and is not part of the key; P41212 (Transcription factor ETV6)
Description: as §1

T1 sequence (P22455 467-755 limits assumed): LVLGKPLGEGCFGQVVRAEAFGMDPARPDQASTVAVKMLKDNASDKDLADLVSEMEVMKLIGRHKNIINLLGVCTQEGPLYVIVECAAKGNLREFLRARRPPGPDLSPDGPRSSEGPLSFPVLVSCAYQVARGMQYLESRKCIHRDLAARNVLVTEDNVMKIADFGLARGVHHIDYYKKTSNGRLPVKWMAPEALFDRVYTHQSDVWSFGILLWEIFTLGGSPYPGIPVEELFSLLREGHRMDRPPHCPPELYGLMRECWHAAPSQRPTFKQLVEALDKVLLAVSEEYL
T2 sequence (P11362 478-767 limits assumed): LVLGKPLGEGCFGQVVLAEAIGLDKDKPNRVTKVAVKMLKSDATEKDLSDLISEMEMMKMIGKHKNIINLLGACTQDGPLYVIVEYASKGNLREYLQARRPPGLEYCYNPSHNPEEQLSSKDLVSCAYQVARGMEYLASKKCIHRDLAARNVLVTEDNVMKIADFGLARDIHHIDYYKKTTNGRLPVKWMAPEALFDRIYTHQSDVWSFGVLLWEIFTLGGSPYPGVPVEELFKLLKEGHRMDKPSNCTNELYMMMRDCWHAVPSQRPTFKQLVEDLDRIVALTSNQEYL

| SMILES | IC50 [1] | IC50 ([2]; numeric bounds) | IC50 ([2]; class symbols) |
| --- | --- | --- | --- |
| C=CC(=O)Nc1cc(N2CCN(CC)CC2)ccc1Nc1ccc2c(ccn2Cc2c(F)c(OC)cc(OC)c2F)n1 [Example 1, N-(2-((1-(2,6-difluoro-3,5-dimethoxybenzyl)-1H-pyrrolo[3,2-b]pyridin-5-yl)amino)-5-(4-ethylpiperazin-1-yl)phenyl)acrylamide] | 100 to 1000 nM | > 3300 nM | – |
| C=CC(=O)Nc1cc(N2CCN(CC)CC2)ccc1Nc1cc2cc(C(F)(F)c3c(F)c(OC)cc(OC)c3F)oc2cn1 [Example 8, N-(2-((2-((2,6-difluoro-3,5-dimethoxyphenyl)difluoromethyl)furo[2,3-c]pyridin-5-yl)amino)-5-(4-ethylpiperazin-1-yl)phenyl)acrylamide] | 100 to 1000 nM | > 10000 nM | – |
| C=CC(=O)Nc1cc(N2CCN(CC)CC2)ccc1Nc1cc2cc(C(=O)c3cc(OC)cc(OC)c3)oc2cn1 [Example 11, N-(2-((2-(3,5-dimethoxybenzoyl)furo[2,3-c]pyridin-5-yl)amino)-5-(4-ethylpiperazin-1-yl)phenyl)acrylamide] | 100 to 1000 nM | – | 1000 to 10000 nM |
| C=CC(=O)N[C@H]1CCOC[C@H]1Nc1cc2cc(C(=O)c3c(F)c(OC)cc(OC)c3F)oc2cn1 [Example 12, N-((3S,4S)-3-((2-(2,6-difluoro-3,5-dimethoxybenzoyl)furo[2,3-c]pyridin-5-yl)amino)tetrahydro-2H-pyran-4-yl)acrylamide] | 100 to 1000 nM | > 10000 nM | – |
| C=CC(=O)Nc1cc(N2CCN(CC)CC2)ccc1Nc1cc2cc(C(=O)c3c(F)c(OC)cc(OC)c3F)n(C)c2cn1 [Example 19, N-(2-((2-(2,6-difluoro-3,5-dimethoxybenzoyl)-1-methyl-1H-pyrrolo[2,3-c]pyridin-5-yl)amino)-5-(4-ethylpiperazin-1-yl)phenyl)acrylamide] | 100 to 1000 nM | – | 1000 to 10000 nM |
| C=CC(=O)Nc1cc(N2CCN(CC)CC2)ccc1Nc1cc2cc(C(=O)c3c(F)c(OC)cc(OC)c3F)[nH]c2cn1 [Example 21, N-(2-((2-(2,6-difluoro-3,5-dimethoxybenzoyl)-1H-pyrrolo[2,3-c]pyridin-5-yl)amino)-5-(4-ethylpiperazin-1-yl)phenyl)acrylamide] | 100 to 1000 nM | > 3300 nM | – |
| C=CC(=O)Nc1cc(N2CCN(CC)CC2)ccc1Nc1cc2c(C(=O)c3c(F)c(OC)cc(OC)c3F)c[nH]c2cn1 [Example 22, N-(2-((3-(2,6-difluoro-3,5-dimethoxybenzoyl)-1H-pyrrolo[2,3-c]pyridin-5-yl)amino)-5-(4-ethylpiperazin-1-yl)phenyl)acrylamide] | 100 to 1000 nM | – | 1000 to 10000 nM |
| C=CC(=O)Nc1cccc(C(F)(F)F)c1Nc1cc2cc(C(=O)c3c(F)c(OC)cc(OC)c3F)oc2cn1 [Example 25, N-(2-((2-(2,6-difluoro-3,5-dimethoxybenzoyl)furo[2,3-c]pyridin-5-yl)amino)-3-(trifluoromethyl)phenyl)acrylamide] | 100 to 1000 nM | > 3300 nM | – |
| C=CC(=O)Nc1cc(N2CCN(CC)CC2)ccc1Nc1cc2cc(C(=O)Nc3c(F)c(OC)cc(OC)c3F)oc2cn1 [Example 32, 5-((2-acrylamido-4-(4-ethylpiperazin-1-yl)phenyl)amino)-N-(2,6-difluoro-3,5-dimethoxyphenyl)furo[2,3-c]pyridine-2-carboxamide] | 100 to 1000 nM | > 3300 nM | – |
| CCN1CCN(c2ccc(Nc3cc4cc(C(=O)c5c(F)c(OC)cc(OC)c5F)oc4cn3)c(NC(=O)/C=C\Cl)c2)CC1 [Example 33, (Z)-3-chloro-N-(2-((2-(2,6-difluoro-3,5-dimethoxybenzoyl)furo[2,3-c]pyridin-5-yl)amino)-5-(4-ethylpiperazin-1-yl)phenyl)acrylamide] | < 100 nM | > 3300 nM | – |
| C=CC(=O)N[C@H]1CCOC[C@H]1Nc1ncc2oc(C(O)c3c(F)c(OC)cc(OC)c3F)cc2n1 (stereo partly drawn) [Example 34, N-((3S,4S)-3-((6-((2,6-difluoro-3,5-dimethoxyphenyl)(hydroxy)methyl)furo[3,2-d]pyrimidin-2-yl)amino)tetrahydro-2H-pyran-4-yl)acrylamide] | 1000 to 10000 nM | > 10000 nM | – |
| C=CC(=O)N[C@H]1CCOC[C@H]1Nc1ncc2oc(C(=O)c3c(F)c(OC)cc(OC)c3F)cc2n1 [Example 35, N-((3S,4S)-3-((6-(2,6-difluoro-3,5-dimethoxybenzoyl)furo[3,2-d]pyrimidin-2-yl)amino)tetrahydro-2H-pyran-4-yl)acrylamide] | < 100 nM | > 10000 nM | – |
| C=CC(=O)Nc1cc(N2CCN(CC)CC2)ccc1Nc1cc2c(O)c(C(=O)c3c(F)c(OC)cc(OC)c3F)oc2cn1 [Example 36, N-(2-((2-(2,6-difluoro-3,5-dimethoxybenzoyl)-3-hydroxyfuro[2,3-c]pyridin-5-yl)amino)-5-(4-ethylpiperazin-1-yl)phenyl)acrylamide] | 1000 to 10000 nM | > 10000 nM | – |
| C=CC(=O)N[C@H]1CCOC[C@H]1Nc1cc2cc(-c3c(Cl)c(OC)cc(OC)c3Cl)oc2cn1 [Example 37, N-((3S,4S)-3-((2-(2,6-dichloro-3,5-dimethoxyphenyl)furo[2,3-c]pyridin-5-yl)amino)tetrahydro-2H-pyran-4-yl)acrylamide] | 100 to 1000 nM | > 10000 nM | – |

Results, then the compound that gave them:

| IC50 [1] | IC50 ([2]; numeric bounds) | IC50 ([2]; class symbols) | SMILES |
| --- | --- | --- | --- |
| < 100 nM | > 10000 nM | – | C=CC(=O)Nc1cc(N2CCN(CC)CC2)ccc1Nc1cc2cc(C(=O)c3c(F)c(OC)cc(OC)c3F)oc2cn1 [Example 3, N-(2-((2-(2,6-difluoro-3,5-dimethoxybenzoyl)furo[2,3-c]pyridin-5-yl)amino)-5-(4-ethylpiperazin-1-yl)phenyl)acrylamide] |
| < 100 nM | – | 1000 to 10000 nM | C=CC(=O)Nc1cc(N2CCN(CC)CC2)ccc1Nc1cc2cc(C(=O)c3c(F)c(OC)cc(OC)c3F)sc2cn1 [Example 16, N-(2-((2-(2,6-difluoro-3,5-dimethoxybenzoyl)thieno[2,3-c]pyridin-5-yl)amino)-5-(4-ethylpiperazin-1-yl)phenyl)acrylamide] |
| < 100 nM | > 10000 nM | – | C=CC(=O)Nc1cccc(C)c1Nc1cc2cc(C(=O)c3c(F)c(OC)cc(OC)c3F)oc2cn1 [Example 17, N-(2-((2-(2,6-difluoro-3,5-dimethoxybenzoyl)furo[2,3-c]pyridin-5-yl)amino)-3-methylphenyl)acrylamide] |
| < 100 nM | – | 1000 to 10000 nM | C=CC(=O)Nc1cc(N2CCN(CC)CC2)ccc1Nc1ncc2oc(C(=O)c3c(F)c(OC)cc(OC)c3F)cc2n1 [Example 20, N-(2-((6-(2,6-difluoro-3,5-dimethoxybenzoyl)furo[3,2-d]pyrimidin-2-yl)amino)-5-(4-ethylpiperazin-1-yl)phenyl)acrylamide] |
| < 100 nM | > 6650 nM | – | C=CC(=O)Nc1cccc(C)c1Nc1ncc2oc(C(=O)c3c(F)c(OC)cc(OC)c3F)cc2n1 [Example 23, N-(2-((6-(2,6-difluoro-3,5-dimethoxybenzoyl)furo[3,2-d]pyrimidin-2-yl)amino)-3-methylphenyl)acrylamide] |
| < 100 nM | > 6650 nM | – | C=CC(=O)Nc1cccc(C)c1Nc1cc2cc(C(=O)c3c(F)c(OC)cc(OC)c3F)sc2cn1 [Example 24, N-(2-((2-(2,6-difluoro-3,5-dimethoxybenzoyl)thieno[2,3-c]pyridin-5-yl)amino)-3-methylphenyl)acrylamide] |
| < 100 nM | > 5100 nM | – | C=CC(=O)Nc1cccc(Cl)c1Nc1cc2cc(C(=O)c3c(F)c(OC)cc(OC)c3F)oc2cn1 [Example 26, N-(3-chloro-2-((2-(2,6-difluoro-3,5-dimethoxybenzoyl)furo[2,3-c]pyridin-5-yl)amino)phenyl)acrylamide] |
